Measurements published in US20230033195A1, “METHODS AND COMPOSITIONS FOR IMPROVING COGNITIVE FUNCTION” (THE JOHNS HOPKINS UNIVERSITY, priority 2011, published 2023).
Like-named read-outs stand apart in the source and are kept apart here.

Assays:
aMCI subjects = assay: neuropsychological tests outside the scanner; format: in vivo, human; conditions: 125 mg twice a day for two weeks, vs placebo
Experimental: A within-subjects trial of 8 weeks duration, involving 17 amnestic MCI (aMCI) subjects and 17 age-matched controls with a low dose treatment of levetiracetam is conducted. During the course of the study, each aMCI subject receives both drug and placebo treatments separately in two periods of two weeks each, with the order of treatments among different aMCI subjects counterbalanced (see FIG. 7). Age-matched control subjects treated with placebo serve as a further control. Cognitive testing and fMRI imaging data are obtained from the subjects after each two week period of drug/placebo treatment. All participants undergo neuropsychological evaluation at the time of assessment for treatment efficacy (Visits 1 and 2), as well as at the Baseline Visit. The evaluation occurs outside of the scanner and includes the Buschke Selective Reminding Test (Buschke and Fuld, 1974) and the Verbal Paired Associates subtest, the Logical Memory subtest, the Visual Reproduction subtest of the Wechsler Memory Scale-Revised (WMS-R) (Wechsler, 1997), and the Benton Visual Retention Test, as these tasks are particularly sensitive to medial temporal lobe function and early memory problems (Marquis et al., 2002 and Masur et al., 1994). Additionally, subjects are asked to complete tests of more general cognitive function such as tests to assess general mental status, executive function, attention and general naming ability. All neuropsychological tests are administered by a trained research assistant during a 60-minute session. As the three neuropsychological assessments in this study occur within a time period of 8 weeks, different versions of the neuropsychological tests are used to minimize test specific practice effects. Breaks are provided to the subject as needed.

[1] = cited from earlier work
DG/CA3 of aMCI subjects = assay: fMRI activity during lure stimuli correctly identified as similar, DG/CA3; format: in vivo, human; conditions: 125 mg twice a day for two weeks
Experimental: FIG. 8B depicts the average activity in the left CA3 of aMCI subjects with placebo treatment or levetiracetam treatment (125 mg twice a day for two weeks) during the presentation of lure stimuli that the subject correctly identified as "similar."
A within-subjects trial of 8 weeks duration, involving 17 amnestic MCI (aMCI) subjects and 17 age-matched controls with a low dose treatment of levetiracetam is conducted. During the course of the study, each aMCI subject receives both drug and placebo treatments separately in two periods of two weeks each, with the order of treatments among different aMCI subjects counterbalanced (see FIG. 7). Age-matched control subjects treated with placebo serve as a further control. Cognitive testing and fMRI imaging data are obtained from the subjects after each two week period of drug/placebo treatment.
Imaging data are obtained through high-resolution methods developed in the Stark laboratory. Data are collected on a Phillips 3 Tesla scanner (Eindhoven, The Netherlands) equipped with an 8-channel SENSE (Sensitivity Encoding) head coil, located at the F.M. Kirby Research Center for Functional Brain Imaging at the Kennedy Krieger Institute (Baltimore, MD). […]
Group data are analyzed using a two-way Analysis of Variance (ANOVA) with trial types and group as fixed factors, and subject as a random factor nested within group. […]

CC[C@@H](C(N)=O)N1CCCC1=O [levetiracetam, (2S)-2-(2-oxopyrrolidin-1-yl) butanamide]
Benton Visual Rentention Test performance (aMCI subjects): fail to rescue performance | Buschke Selective Reminding Test - Delayed Recall performance (aMCI subjects): fail to rescue performance | Verbal Paired Associates Test - Delayed Recall performance (aMCI subjects): fail to rescue performance | Verbal Paired Associates Test - Recognition performance (aMCI subjects): fail to rescue performance | absorption ([1]; after oral administration): rapidly and almost completely absorbed | plasma half-life ([1]; expected in elderly due to decreased renal function): 9 to 10 h | time of peak plasma concentrations ([1]; following oral administration): about 1 hour | plasma half-life ([1]; in vivo): approximately 7 ± 1 hour | time to steady state ([1]; multiple twice-daily dosing): 2 days | effect of food on bioavailability ([1]; oral administration): not affected by food | DG/CA3 activity compared with control subjects treated with placebo (DG/CA3 of aMCI subjects): statistically indistinguishable | DG/CA3 activity during successful memory judgments, vs placebo treatment (DG/CA3 of aMCI subjects; p = 0.037): reduces DG/CA3 hyper-activity
